Several values for one entry are separate records, joined by “and”; a condition that tells them apart may be missing. Equal entries are not always repeated. Structures can show the parent of a compound that is named as a salt.
Row | SMILES | melting point
1 | COc1cc(CNC(=O)CCCC/C=C/C(C)C)ccc1O [(6E)-N-(4-Hydroxy-3-methoxybenzyl)-8-methylnon-6-enamide] | 66 °C
2 | C=C[C@H]1C[N@@]2CC[C@H]1C[C@H]2[C@H](O)c1ccnc2ccccc12 [(8alpha,9R)-Cinchonan-9-ol] | 200 °C
3 | O=C4\C=C3/[C@@H]([C@H]2CC[C@]1([C@@H](CC[C@]1(C#C)O)[C@@H]2CC3)CC)CC4 [(-)-levonorgestrel] | 236 °C
4 | CCCCc1ccc(/N=N/c2ccc(OCCC)cc2)cc1 [(E)-1-(4-butylphenyl)-2-(4-propoxyphenyl)diazene] | 67 °C
5 | [O-]/[N+](=N\c1ccccc1)c1ccc(/N=N/c2ccc(/[N+]([O-])=N/c3ccccc3)cc2)cc1 [(E)-bis{4-[(Z)-phenyl-NNO-azoxy]phenyl}diazene] | 139 °C
6 | ClC(Cl)(Cl)c1ccccc1 [(Trichloromethyl)benzene] | -5 °C
7 | FC(F)(F)c1ccccc1 [(Trifluoromethyl)benzene] | -27 °C
8 | Cl/C=C\Cl [(Z)-1,2-Dichloroethene] | -80 °C
9 | N#CC(C#N)=Nc1ccccc1 [(phenylimino)propanedinitrile] | 87 °C
10 | CC#N [Acetonitrile] | -46 °C
11 | C=CC(=O)O [Acrylic Acid] | 13.5 °C
12 | C1[C@H]3C[C@@H]2C[C@@H](C[C@H]1C2)C3 [Adamantane] | 269 °C
13 | Nc1ncnc2c1ncn2[C@@H]1O[C@H](CO)[C@@H](O)[C@H]1O [Adenosine] [listing 1 of 2 here] | 236 °C
14 | NC(=O)CCCCC(N)=O [Adipamide] | 220 °C
15 | NC12CC3CC(CC(C3)C1)C2 [Amantadine] | 180 °C
16 | Nc1ccc(C(=O)O)c(O)c1 [Aminosalicylic Acid] | 150 °C
17 | O=C(O)c1c2ccccc2cc2ccccc12 [Anthracene-9-carboxylic acid] | 213 °C
18 | c1ccc2cc3ccccc3cc2c1 [Anthracene] | 216 °C
19 | Cc1cc(=O)n(-c2ccccc2)n1C [Antipyrine] | 112 °C
20 | CC/N=c1/nc(Cl)[nH]/c(=N\C(C)C)[nH]1 [Atrazine] | 177 °C
21 | O=Cc1ccccc1 [Benzaldehyde] | -56 °C
22 | c1ccc2c(c1)cc1ccc3cccc4ccc2c1c34 [Benzo[a]pyrene] | 176 °C
23 | c1ccc2c(c1)ccc1cc3c(ccc4ccccc43)cc12 [Benzo[k]tetraphene] | 266 °C

Row | SMILES | melting point
24 | N#Cc1ccccc1 [Benzonitrile] | -13 °C
25 | CC(=O)C(C)=O [Biacetyl] | -3 °C
26 | O=C(O)CCCC[C@@H]1SC[C@@H]2NC(=O)N[C@@H]21 [Biotin] | 232 °C
27 | Oc1ccccc1-c1ccccc1 [Biphenyl-2-ol] | 57 °C
28 | [2H]C([2H])([2H])S(=O)C([2H])([2H])[2H] [Bis[(~2~H_3_)methyl] sulfoxide] | 18.4 °C
29 | ClCBr [Bromo(chloro)methane] | -88 °C
30 | CCBr [Bromoethane] | -119 °C
31 | CCCCN1CCCCC1C(=O)Nc1c(C)cccc1C (configuration not stated) [Bupivacaine] | 108 °C
32 | NCCCCN [Butane-1,4-diamine] | 27.5 °C
33 | OCCCCO [Butane-1,4-diol] | 18 °C
34 | CCCCC1(CC)C(=O)NC(=O)NC1=O [Butethal] | 128 °C
35 | CCCCOC(=O)c1ccc(O)cc1 [Butyl 4-hydroxybenzoate] | 69 °C
36 | CCCCC1CCCCC1 [Butylcyclohexane] | -75 °C
37 | Cn1c(=O)c2c(ncn2C)n(C)c1=O [Caffeine] [listing 1 of 2 here] | 236 °C
38 | C[C@H](CS)C(=O)N1CCC[C@H]1C(=O)O [Captopril] | 106 °C
39 | NC(=O)N1c2ccccc2C=Cc2ccccc21 [Carbamazepine] [listing 2 of 2 here] | 190 °C
40 | NC(CN(Cc1ccccc1)c1ccccc1)=NO [Cetoxime] | 107 °C
41 | FC(F)Cl [Chloro(difluoro)methane] | -146 °C
42 | O=C(O)CCl [Chloroacetic acid] | 63 °C
43 | CCCNC(=O)NS(=O)(=O)c1ccc(Cl)cc1 [Chlorpropamide] | 128 °C
44 | COc1cc(N)c(Cl)cc1C(=O)NC1CCN(CCCOc2ccc(F)cc2)CC1OC (configuration not stated) [Cisapride] | 110 °C
45 | O=C1CN=C(c2ccccc2Cl)c2cc([N+](=O)[O-])ccc2N1 [Clonazepam] | 238 °C
46 | NC1CCCCC1 [Cyclohexanamine] | -18 °C

Row | SMILES | melting point
47 | [C-]#[N+]C1CCCCC1 [Cyclohexyl isocyanide] | 6 °C
48 | O=P1(N(CCCl)CCCl)NCCCO1 (configuration not stated) [Cyclophosphamide] | 43 °C
49 | NS(=O)(=O)c1cc2c(cc1Cl)NC(C1CC3C=CC1C3)NS2(=O)=O (configuration not stated) [Cyclothiazide] | 228 °C
50 | Nc1ccn([C@@H]2O[C@H](CO)[C@@H](O)[C@H]2O)c(=O)n1 [Cytidine] | 210 °C
51 | OC[C@@H](O)[C@@H](O)[C@@H](O)CO [D-Ribitol] | 102 °C
52 | C[C@@H](O)[C@@H](N)C(=O)O [D-allo-threonine] | 278 °C
53 | CC1(C)O[C@@H]2CO[C@]3(COC(C)(C)O3)C(=O)[C@@H]2O1 [D-epoxone] | 102 °C
54 | O[C@@H]1[C@H](O)[C@@H](O)OC[C@H]1O [D-lyxose] | 112 °C
55 | N[C@@H](CO)Cc1ccccc1 [D-phenylalaninol] | 92 °C
56 | OCc1ccccc1O[C@@H]1O[C@H](CO)[C@@H](O)[C@H](O)[C@H]1O [D-salicin] | 199 °C
57 | Clc1ccc(C(c2ccc(Cl)cc2)C(Cl)(Cl)Cl)cc1 [DDT] | 109 °C (4×) and 108 °C (2×)
58 | CCOC(=O)C(C#N)=c1sc(=C(C#N)C(=O)OCC)s1 [DIETHYL 2,2'-(1,3-DITHIETANE-2,4-DIYLIDENE)BIS(CYANOACETATE)] | 161 °C
59 | C#CCCCCCCCC [Dec-1-yne] | -44 °C
60 | CCCCCCCCCCc1ccccc1 [Decylbenzene] | -14 °C
61 | BrCBr [Dibromomethane] | -52 °C
62 | FC(F)(Cl)Cl [Dichloro(difluoro)methane] | -158 °C
63 | O=C(O)C(Cl)Cl [Dichloroacetic acid] | 9.7 °C
64 | ClC1=C(Cl)C2(Cl)C3C4CC(C5OC45)C3C1(Cl)C2(Cl)Cl (configuration not stated) [Dieldrin] | 175 °C
65 | CCOCC [Diethyl ether] | -116 °C
66 | CCOC(=O)CC(=O)OCC [Diethyl malonate] | -50 °C
67 | CCOS(=O)(=O)OCC [Diethyl sulfate] | -24 °C

Other lines, results leading:

Row | melting point | SMILES
68 | 74.6 °C | CC(C)Cc1ccc(C(C)C(=O)O)cc1 (stereo not drawn) [(+/+)-ibuprofen]
69 | 242 °C | O=C(O)/C(=C/c1ccc([N+](=O)[O-])cc1)c1ccc(F)cc1 [(E)-2-(4-Fluorophenyl)-3-(4-nitrophenyl)propenoic acid]
70 | 47 °C | CC(C)(C)OC(=O)N1CCC[C@@H](O)C1 [(R)-1-boc-3-hydroxypiperidine]
71 | 112 °C | O=C(O)CS(=O)(=O)c1ccccc1 [(phenylsulfonyl)acetic acid]
72 | 67 °C | [2H]C([2H])([2H])C([2H])([2H])C([2H])([2H])C([2H])([2H])C([2H])([2H])C([2H])([2H])C([2H])([2H])C([2H])([2H])C([2H])([2H])C([2H])([2H])C([2H])([2H])C([2H])([2H])C([2H])([2H])C([2H])([2H])C([2H])([2H])C([2H])([2H])C([2H])([2H])C(=O)O [(~2~H_35_)Octadecanoic acid]
73 | 81 °C | CC(N)=O [Acetamide]
74 | 257 °C | Nc1nc(=O)c2ncn(COCCO)c2[nH]1 [Aciclovir]
75 | 234 °C | Nc1ncnc2c1ncn2[C@@H]1O[C@H](CO)[C@@H](O)[C@H]1O [Adenosine] [listing 2 of 2 here]
76 | -55 °C | CCCCCN [Amylamine]
77 | 127 °C | NC(=O)c1ccccc1 [Benzamide]
78 | 21 °C | O=C(OCc1ccccc1)c1ccccc1 [Benzyl Benzoate]
79 | 10 °C | NCc1ccccc1 [Benzylamine]
80 | 57 °C | OCC#CCO [But-2-yne-1,4-diol]
81 | 238 °C | Cn1c(=O)c2c(ncn2C)n(C)c1=O [Caffeine] [listing 2 of 2 here]
82 | 190 °C | NC(=O)N1c2ccccc2C=Cc2ccccc21 [Carbamazepine] [listing 1 of 2 here]
83 | 134 °C | N=C(NCCCCCCNC(=N)NC(=N)Nc1ccc(Cl)cc1)NC(=N)Nc1ccc(Cl)cc1 [Chlorhexidine]
84 | 218 °C | CC[C@H]1OC(=O)[C@H](C)[C@@H](O[C@@H]2C[C@](C)(OC)[C@H](O)[C@@H](C)O2)[C@H](C)[C@@H](O[C@@H]2O[C@H](C)C[C@H](N(C)C)[C@H]2O)[C@](C)(OC)C[C@@H](C)C(=O)[C@H](C)[C@@H](O)[C@]1(C)O [Clarithromycin]
85 | 438 °C | c1cc2ccc3ccc4ccc5ccc6ccc1c1c2c3c4c5c61 [Coronene]
86 | 61 °C | C1CCCCCCCCCCC1 [Cyclododecane]
87 | 5 °C | c1ccc(C2CCCCC2)cc1 [Cyclohexylbenzene]
88 | 95 °C | O=C(CO)[C@H](O)[C@@H](O)[C@H](O)CO [D-Sorbose]
89 | 102 °C | C(O)[C@@H](O)[C@@H](O)[C@H](O)CO [D-arabitol]
90 | 165 °C | O=C(O)[C@@]1(O)CC(O)[C@H](O)[C@H](O)C1 (stereo partly drawn) [D-quinic acid]
91 | 164 °C | O=C(CO)[C@H](O)[C@@H](O)[C@H](O)CO [D-sorbose]
92 | 262 °C | C[C@@H]1C[C@H]2[C@@H]3CCC4=CC(=O)C=C[C@]4(C)[C@@]3(F)[C@@H](O)C[C@]2(C)[C@@]1(O)C(=O)CO [Dexamethasone]
93 | 194 °C | C[C@@H](CN1CC(=O)NC(=O)C1)N1CC(=O)NC(=O)C1 [Dexrazoxane]
94 | 330 °C | CC1=NS(=O)(=O)c2cc(Cl)ccc2N1 [Diazoxide]
95 | 269 °C | c1ccc2c(c1)ccc1cc3c(ccc4ccccc43)cc12 [Dibenz[ah]anthracene]
96 | -43 °C | CCOC(=O)OCC [Diethyl carbonate]
97 | 170 °C | Oc1ccc(cc1)C(CC)=C(/CC)c2ccc(O)cc2 [Diethylstilbestrol]

— the Bradley open melting point set (2014)
